# What was measured:
# [1] = molecular target: T1, Poly [ADP-ribose] polymerase 1 (Homo sapiens, UniProt P09874)
# Description: Inhibition of PARP1 in human C41 cells
# [2] = molecular target: T1, Poly [ADP-ribose] polymerase 1; remark: listed apart in the source
# [3] = Solubility in water at pH 7.8; format: physicochemical
# [4] = Volume of distribution at steady state in CD1 mouse at 10 mg/kg; format: ADME, organism-based; set-up: dose 10 mg/kg; details: in vivo, read-out: Vdss
# [5] = Half life in monkey at 4.1 mg/kg, iv; format: ADME, organism-based, Macaca mulatta; set-up: dose 4.1 mg/kg, route intravenous; details: rhesus monkey, in vivo
# [6] = AUC in monkey at 4.1 mg/kg, po; format: ADME, organism-based, Macaca mulatta; set-up: dose 4.1 mg/kg, route oral; details: rhesus monkey, plasma
# [7] = Clearance in CD1 mouse at 10 mg/kg; format: ADME, organism-based; set-up: dose 10 mg/kg; details: in vivo
# [8] = Half life in CD1 mouse at 3 mg/kg, iv; details: in vivo
# [9] = AUC in CD1 mouse at 10 mg/kg, po; format: ADME, organism-based; set-up: dose 10 mg/kg, route oral; details: plasma
# [10] = Volume of distribution at steady state in monkey at 4.1 mg/kg; format: ADME, organism-based, Macaca mulatta; set-up: dose 4.1 mg/kg; details: rhesus monkey, in vivo, read-out: Vdss
# [11] = Half life in rat at 4.1 mg/kg, iv; format: ADME, organism-based; set-up: dose 4.1 mg/kg, route intravenous; details: in vivo
# [12] = Half life in CD1 mouse at 3 mg/kg, iv; format: ADME, organism-based; set-up: dose 3 mg/kg, route intravenous; details: in vivo
# [13] = molecular target: Poly [ADP-ribose] polymerase 2 (Homo sapiens, UniProt Q9UGN5); assay: Inhibition of PARP2
# [14] = Clearance in monkey at 4.1 mg/kg; format: ADME, organism-based, Macaca mulatta; set-up: dose 4.1 mg/kg; details: rhesus monkey, in vivo
# [15] = Clearance in dog at 4.1 mg/kg; format: ADME, organism-based, Canis lupus familiaris; set-up: dose 4.1 mg/kg; details: in vivo
# [16] = Oral bioavailability in monkey at 4.1 mg/kg; format: ADME, organism-based, Macaca mulatta; details: rhesus monkey, in vivo
# [17] = Cmax in monkey at 4.1 mg/kg, po; format: ADME, organism-based, Macaca mulatta; set-up: dose 4.1 mg/kg, route oral; details: rhesus monkey, in vivo
# [18] = Protein binding in human plasma; format: ADME, cell-free; details: read-out: PPB (converted)
# [19] = Oral bioavailability in CD1 mouse at 10 mg/kg; format: ADME, organism-based; details: in vivo
# [20] = Volume of distribution at steady state in dog at 4.1 mg/kg; format: ADME, organism-based, Canis lupus familiaris; set-up: dose 4.1 mg/kg; details: in vivo, read-out: Vdss
# [21] = Half life in dog at 4.1 mg/kg, iv; format: ADME, organism-based, Canis lupus familiaris; set-up: dose 4.1 mg/kg, route intravenous; details: in vivo
# [22] = Oral bioavailability in dog at 4.1 mg/kg; format: ADME, organism-based, Canis lupus familiaris; details: in vivo
# [23] = Clearance in rat at 4.1 mg/kg; format: ADME, organism-based; set-up: dose 4.1 mg/kg; details: in vivo
# [24] = AUC in rat at 4.1 mg/kg, po; format: ADME, organism-based; set-up: dose 4.1 mg/kg, route oral; details: plasma
# [25] = Cmax in dog at 4.1 mg/kg, po; format: ADME, organism-based, Canis lupus familiaris; set-up: dose 4.1 mg/kg, route oral; details: in vivo
# [26] = AUC in dog at 4.1 mg/kg, po; format: ADME, organism-based, Canis lupus familiaris; set-up: dose 4.1 mg/kg, route oral; details: plasma
# [27] = Cmax in rat at 4.1 mg/kg, po; format: ADME, organism-based; set-up: dose 4.1 mg/kg, route oral; details: in vivo
# [28] = Cmax in CD1 mouse at 10 mg/kg, po; format: ADME, organism-based; set-up: dose 10 mg/kg, route oral; details: in vivo
# [29] = Volume of distribution at steady state in rat at 4.1 mg/kg; format: ADME, organism-based; set-up: dose 4.1 mg/kg; details: in vivo, read-out: Vdss
# [30] = Oral bioavailability in rat at 4.1 mg/kg; format: ADME, organism-based; details: in vivo
# T1 sequence (P09874 whole entry): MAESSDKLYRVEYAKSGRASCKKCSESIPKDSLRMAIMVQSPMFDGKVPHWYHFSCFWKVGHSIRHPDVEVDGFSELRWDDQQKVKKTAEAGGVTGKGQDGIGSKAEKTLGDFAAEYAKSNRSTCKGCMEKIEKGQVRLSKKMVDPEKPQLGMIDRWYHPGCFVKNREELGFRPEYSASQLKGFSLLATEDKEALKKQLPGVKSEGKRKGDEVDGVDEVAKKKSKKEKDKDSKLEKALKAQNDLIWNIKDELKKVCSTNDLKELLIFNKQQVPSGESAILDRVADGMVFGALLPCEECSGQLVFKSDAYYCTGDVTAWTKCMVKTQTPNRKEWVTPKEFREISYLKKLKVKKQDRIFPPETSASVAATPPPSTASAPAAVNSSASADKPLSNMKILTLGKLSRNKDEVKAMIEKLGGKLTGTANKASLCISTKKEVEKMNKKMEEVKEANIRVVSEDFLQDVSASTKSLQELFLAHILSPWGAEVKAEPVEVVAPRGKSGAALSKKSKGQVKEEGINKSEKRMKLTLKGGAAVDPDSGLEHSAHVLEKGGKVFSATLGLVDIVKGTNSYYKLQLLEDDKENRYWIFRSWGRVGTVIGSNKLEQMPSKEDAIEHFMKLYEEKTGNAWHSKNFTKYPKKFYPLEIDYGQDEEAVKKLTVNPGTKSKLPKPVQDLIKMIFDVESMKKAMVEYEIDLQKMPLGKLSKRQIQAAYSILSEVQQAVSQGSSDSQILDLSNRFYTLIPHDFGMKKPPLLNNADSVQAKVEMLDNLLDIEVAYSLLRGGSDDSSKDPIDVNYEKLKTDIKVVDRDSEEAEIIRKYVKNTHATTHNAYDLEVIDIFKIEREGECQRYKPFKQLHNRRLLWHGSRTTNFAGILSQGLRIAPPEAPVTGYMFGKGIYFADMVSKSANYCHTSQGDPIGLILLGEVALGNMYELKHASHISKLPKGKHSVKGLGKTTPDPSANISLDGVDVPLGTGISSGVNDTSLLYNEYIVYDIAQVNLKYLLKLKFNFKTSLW
# Poly [ADP-ribose] polymerase 2, sequence (Q9UGN5 whole entry): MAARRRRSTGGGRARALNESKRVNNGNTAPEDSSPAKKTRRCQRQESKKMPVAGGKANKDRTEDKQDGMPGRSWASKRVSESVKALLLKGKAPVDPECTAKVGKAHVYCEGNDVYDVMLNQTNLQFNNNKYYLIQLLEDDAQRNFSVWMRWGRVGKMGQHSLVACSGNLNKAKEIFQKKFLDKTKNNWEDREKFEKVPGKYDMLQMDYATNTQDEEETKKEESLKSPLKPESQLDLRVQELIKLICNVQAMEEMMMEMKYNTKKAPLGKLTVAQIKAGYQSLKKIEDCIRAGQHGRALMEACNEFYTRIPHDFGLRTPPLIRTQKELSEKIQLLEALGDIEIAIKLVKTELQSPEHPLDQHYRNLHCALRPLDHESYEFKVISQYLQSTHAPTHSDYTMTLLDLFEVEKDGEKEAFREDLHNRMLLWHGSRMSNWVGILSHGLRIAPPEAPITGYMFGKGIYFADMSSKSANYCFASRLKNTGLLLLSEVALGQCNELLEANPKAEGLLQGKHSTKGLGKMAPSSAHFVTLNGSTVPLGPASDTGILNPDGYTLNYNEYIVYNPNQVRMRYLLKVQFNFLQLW
smiles,measurement,setting,value
CN1CCCCC1c1nc2c(C(N)=O)cccc2[nH]1 (centres undefined),EC50,[1],30 nM
same,Ki,[2],29 nM
CN1CCC(c2nc3cccc(C(N)=O)c3[nH]2)CC1,EC50,[1],9 nM
same,Ki,[2],19 nM
CCCN1CCC(c2nc3cccc(C(N)=O)c3[nH]2)CC1,solubility,[3],6000 µg/mL
same,Vd,[4],9.1 L/kg
same,half-life,[5],1.7 h
same,AUC,[6],700 ng·h/mL
same,clearance,[7],88.3 mL/min/kg
same,half-life,[8],1.2 h
same,AUC,[9],1200 ng·h/mL
same,Vd,[10],4.9 L/kg
same,EC50,[1],3 nM
same,half-life,[11],2.6 h
same,half-life,[12],1.2 h
same,Ki,[13],5 nM
same,clearance,[14],33.3 mL/min/kg
same,clearance,[15],15 mL/min/kg
same,bioavailability,[16],32%
same,Cmax,[17],200 ng/mL
same,Ki,[2],8 nM
same,fraction unbound,[18],0.43
same,bioavailability,[19],63%
same,Vd,[20],3.6 L/kg
same,half-life,[21],2.7 h
same,bioavailability,[22],82%
same,clearance,[23],48.3 mL/min/kg
same,AUC,[24],700 ng·h/mL
same,Cmax,[25],1000 ng/mL
same,AUC,[26],3700 ng·h/mL
same,Cmax,[27],800 ng/mL
same,Cmax,[28],400 ng/mL
same,Vd,[29],10.7 L/kg
same,bioavailability,[30],48%
CC(C)N1CCCCC1c1nc2c(C(N)=O)cccc2[nH]1 (centres undefined),EC50,[1],13 nM
same,Ki,[2],45 nM
COC1CCC(c2nc3cccc(C(N)=O)c3[nH]2)CC1 (centres undefined),EC50,[1],210 nM
same,Ki,[2],44 nM
CN1CCC[C@@H]1c1nc2c(C(N)=O)cccc2[nH]1,AUC,[9],40 ng·h/mL
same,half-life,[12],0.1 h
same,bioavailability,[19],25%
same,Cmax,[28],30 ng/mL
CN1CCCC(c2nc3c(C(N)=O)cccc3[nH]2)C1 (centres undefined),EC50,[1],15 nM
same,Ki,[2],30 nM
NC(=O)c1cccc2[nH]c(C3CNC3)nc12,Ki,[13],11 nM
CC(C)N1CCC(c2nc3c(C(N)=O)cc(Cl)cc3[nH]2)CC1,AUC,[9],1700 ng·h/mL
same,EC50,[1],9 nM
same,half-life,[12],1.4 h
same,Ki,[2],18 nM
same,bioavailability,[19],100%
same,Cmax,[28],300 ng/mL
CC(=O)N1CCC(c2nc3cccc(C(N)=O)c3[nH]2)CC1,Ki,[2],59 nM
CC(C)N1CCC1c1nc2c(C(N)=O)cccc2[nH]1 (centres undefined),Ki,[2],110 nM
CC(C)N1CCC(c2nc3c(C(N)=O)cccc3[nH]2)CC1,EC50,[1],4 nM
same,Ki,[13],2 nM
same,Ki,[2],7 nM
CCCN1CCC(c2nc3c(C(N)=O)cccc3n2C)CC1,EC50,[1],21 nM
same,Ki,[2],34 nM
CN(C)S(=O)(=O)N1CCC(c2nc3c(C(N)=O)cccc3[nH]2)CC1,EC50,[1],170 nM
same,Ki,[2],28 nM
NC(=O)c1cccc2[nH]c([C@H]3CCCN3)nc12,AUC,[9],3400 ng·h/mL
same,half-life,[12],1.2 h
same,bioavailability,[19],100%
same,Cmax,[28],1800 ng/mL
NC(=O)c1cccc2[nH]c(C3CCN(S(=O)(=O)c4ccccc4)CC3)nc12,EC50,[1],> 1000 nM
same,Ki,[13],24 nM
same,Ki,[2],27 nM
CC(C)N1CCC[C@H]1c1nc2c(C(N)=O)cccc2[nH]1,EC50,[1],15 nM
same,Ki,[2],20 nM
NC(=O)c1cccc2nc([C@@H]3CCC(=O)N3)[nH]c12,Ki,[13],3 nM
NC(=O)c1cccc2[nH]c(C3CCN3)nc12 (centres undefined),EC50,[1],200 nM
NC(=O)c1cccc2[nH]c(C3CCNCC3)nc12,EC50,[1],> 1000 nM
same,Ki,[2],5 nM
NC(=O)c1cccc2[nH]c(C3CCN(C4CCCC4)CC3)nc12,EC50,[1],5 nM
same,Ki,[2],6 nM
CCN(CC)CCN1CCC(c2nc3cccc(C(N)=O)c3[nH]2)CC1,EC50,[1],94 nM
same,Ki,[2],31 nM
CCCN1CCC(c2nc3c(C(N)=O)cccc3[nH]2)C1 (centres undefined),EC50,[1],3 nM
same,Ki,[2],8 nM
NC(=O)c1cccc2[nH]c(C3CNCCN3)nc12 (centres undefined),EC50,[1],> 1000 nM
same,Ki,[2],26 nM
CC(C)N1CCCC(c2nc3cccc(C(N)=O)c3[nH]2)CC1 (centres undefined),EC50,[1],6 nM
same,Ki,[2],5 nM
NC(=O)c1cccc2[nH]cnc12,Ki,[2],240 nM
CCCN1CC(c2nc3c(C(N)=O)cccc3[nH]2)C1,EC50,[1],16 nM
same,Ki,[2],17 nM
N#Cc1ccc(N2CCC(c3nc4c(C(N)=O)cccc4[nH]3)CC2)cc1,EC50,[1],21 nM
same,Ki,[2],3 nM
CC(C)N1CCCC(c2nc3cccc(C(N)=O)c3[nH]2)C1 (centres undefined),AUC,[9],1200 ng·h/mL
same,EC50,[1],12 nM
same,half-life,[12],0.4 h
same,Ki,[2],22 nM
same,bioavailability,[19],100%
same,Cmax,[28],800 ng/mL
CC(C)N1CCC[C@@H]1c1nc2cccc(C(N)=O)c2[nH]1,EC50,[1],12 nM
same,Ki,[2],21 nM
NC(=O)c1cccc2[nH]c(C3CCN(CCc4ccccc4)C3)nc12 (centres undefined),AUC,[9],1300 ng·h/mL
same,EC50,[1],6 nM
same,half-life,[12],0.8 h
same,bioavailability,[19],89%
same,Cmax,[28],700 ng/mL
NC(=O)c1cccc2[nH]c(C3CCCNC3)nc12 (centres undefined),AUC,[9],1000 ng·h/mL
same,EC50,[1],24 nM
same,half-life,[12],2 h
same,Ki,[2],11 nM
same,bioavailability,[19],26%
same,Cmax,[28],200 ng/mL
CN1CCN(C)C(c2nc3cccc(C(N)=O)c3[nH]2)C1 (centres undefined),EC50,[1],97 nM
same,Ki,[2],35 nM
